{"source": "patent US12083157B2", "about": "“Use of polylysine dendrimers in the prevention and management of acne-prone skin and acneic skin” (Lucas Meyer Cosmetics, priority 2019, dated 2024)", "key": {"[1]": {"system": "IL-8", "assay": "IL1-α-induced IL-8 production in normal human dermal fibroblasts (ELISA)", "assay_type": "cell-based", "protocol": "There is evidence that C. acnes is involved in invoking an inflammatory response. […] Therefore, the effect of the G2 dendrimer on inflammation in normal human dermis fibroblasts (NHDF) was assessed. NHDF were isolated from human dermis and maintained in DMEM containing 10% fetal calf serum, 1% antibiotics (penicillin/streptomycin) and 1% L-glutamine at 37° C. under 5% CO2 and 95% humidity.\nIL-8 mediates inflammatory reactions in the skin through the recruitment of neutrophils and other immune cells to invade injured or inflamed tissue. IL-8 secretion is inducible in cultured human dermal fibroblasts following activation with the pro-inflammatory cytokine IL-la (Larsen, et al. (1989) Immunology 68(1):31-6). Accordingly, non-confluent NHDF cells were treated with IL1-α (0.1 ng/mL), as an inducer of IL-8 production, in the presence or absence of G2 dendrimer (10^−9M, 10^−8M, 10^−7M or 10^−6 M) or hydrocortisone (0.05 μg/mL) as the positive anti-inflammatory control. IL-8 release from fibroblasts was determined by enzyme-linked immunosorbent assay (ELISA)."}, "[2]": {"system": "C. acnes strain IP 53117T", "assay": "Inhibition of C. acnes growth in culture (MIC, 96-well plates)", "assay_type": "cell-based, Cutibacterium acnes", "settings": "C. acnes strain IP 53117T (phylotype IA1); 24 to 48 hours at 37° C.", "protocol": "The effectiveness of G2 dendrimer for inhibiting the growth of C. acnes in culture was assessed. G2 dendrimer was used at a final concentration ranging between 10^−2 M and 10^−5M. Experiments were performed using C. acnes strain IP 53117T (see FR2844715 A1), a strain known to cause acne. This strain belongs to a ribotype 1 (RT1) from phylotype 1A1 and is thus an acneic strain.\nBacteria (10^8 CFU/ml) were inoculated in 96-well plates containing a range of G2 dendrimer concentrations."}, "[3]": {"system": "adhesion of tritium-labeled C. acnes IP 53117T to keratinocytes (NCTC 2544)", "assay": "C. acnes adhesion to keratinocytes, Method 1 (concomitant, 2 hours)", "assay_type": "cell-based, Cutibacterium acnes", "settings": "after 2 hours, vs absence of G2 dendrimer", "protocol": "(§1) Keratinocytes were isolated from the human epithelial cell line NCTC 2544 (Neufahrt, et al. (1978) Arch. Dermaol. Res. 256(3):255-60). Culture were maintained with Dulbecco's modified Eagle's medium (DMEM) containing 10% fetal calf serum, 1% antibiotics (penicillin/streptomycin), and 1% L-glutamine at 37° C. under 5% CO2 and 95% humidity.\nTo monitor bacterial adhesion, adenine of the IP 53117T bacterial strain (belonging to acneic phylotype IA1) was labeled with tritium and bacterial adhesion to the surface of keratinocytes was determined by counting the radioactivity. • Method 1. […] After incubation for 2 hours (37° C., 5% CO2), cells were washed with phosphate-buffered saline (PBS) to remove non-adherent bacteria. • Method 2. The keratinocytes were pretreated for 24 hours with the G2 dendrimer. Labeled bacteria (2×10^8 microorganisms/mL) was then added to the cell monolayer for 2 hours without prior removal of the G2 dendrimer."}, "[4]": {"system": "adhesion of tritium-labeled C. acnes IP 53117T to keratinocytes (NCTC 2544)", "assay": "C. acnes adhesion to keratinocytes, Method 2 (24-hour pretreatment)", "assay_type": "cell-based, Cutibacterium acnes", "protocol": "as §1\nTo monitor bacterial adhesion, adenine of the IP 53117T bacterial strain (belonging to acneic phylotype IA1) was labeled with tritium and bacterial adhesion to the surface of keratinocytes was determined by counting the radioactivity. • Method 1. Labeled bacteria (2×10^8 microorganisms/mL) were combined with varying amounts of G2 dendrimer (final concentration between 10^−5M and 6.25×10^−6 M) and deposited on the surface of a monolayer of keratinocytes. After incubation for 2 hours (37° C., 5% CO2), cells were washed with phosphate-buffered saline (PBS) to remove non-adherent bacteria. • Method 2. The keratinocytes were pretreated for 24 hours with the G2 dendrimer. Labeled bacteria (2×10^8 microorganisms/mL) was then added to the cell monolayer for 2 hours without prior removal of the G2 dendrimer."}, "[5]": {"system": "stratum corneum of human skin explants", "assay": "Keratolytic effect in human skin explants exposed to C. acnes", "assay_type": "cell-based", "settings": "explants at day 8", "protocol": "(§2) Skin Treatment. Fifteen human skin specimens were obtained from patients undergoing plastic surgery (Caucasian women, 26 years old). Skin explants were maintained in culture for 8 days. A 1-hour treatment with G2 dendrimer (2 and 5 ppm) was concomitant with application of freeze-dried C. acnes (30 μL) at days 0, 1, 4 and 6 (FIG. 2). At day 8, explants were fixed and embedded in paraffin. Thick sections of 5 μm were stained with Masson's Trichrome stain or an anti-TLR2 antibody.\nEvaluation of Keratolytic Effect. The general morphology and in particular stratum corneum of the explants were analyzed. Images were taken with a Leica Orthoplan microscope equipped with a digital camera (tri-CCD) driven by the acquisition and archiving software Leica IM1000."}, "[6]": {"system": "TLR2", "assay": "TLR2 immunostaining in human skin explants challenged with C. acnes", "assay_type": "cell-based", "settings": "topical application at 2 and 5 ppm", "protocol": "as §2\nImmunostaining of TLR2 TLR2 is known to mediate the inflammatory response of skin to acne (Kim, et al. (2002) 1 Immunol. 169(3):1535-41; McInturff & Kim (2005) Semin. Cutan. Med. Surg. 24(2):73-8). Accordingly, TLR2 protein in frozen sections was assessed with an anti-TLR2 (clone TL2.1; Santa Cruz). Sections were incubated with a 1:25 dilution of the anti-TLR2 antibody overnight at 4° C. and antibody binding was subsequently detected with biotin/streptavidin-FITC conjugate. Nuclei were stained with propidium iodide."}, "[7]": {"system": "IL1-α", "assay": "IL1-α quantification in culture media of human skin explants (ELISA)", "assay_type": "cell-based", "protocol": "as §2\nQuantification of IL1-α Cytokine. The concentration of IL1-α in the culture media was determined using an ELISA assay kit (Cayman, Ann Arbor, MI). The absorbances were measured using a microplate reader Tecan Infinite M200 Pro, combined with Magellan's software."}, "[8]": {"system": "C. acnes acneic strain RT4 (phylotype IA1)", "assay": "Membrane fluidity of C. acnes strain RT4", "assay_type": "cell-based, Cutibacterium acnes", "settings": "6·10^−6M, 72 h of incubation"}, "[9]": {"system": "C. acnes acneic strain RT5 (phylotype IA1)", "assay": "Membrane fluidity of C. acnes strain RT5", "assay_type": "cell-based, Cutibacterium acnes", "settings": "6·10^−6M, 72 h of incubation"}, "[10]": {"system": "C. acnes non-acneic strain RT6 (phylotype II)", "assay": "Membrane fluidity of C. acnes strain RT6", "assay_type": "cell-based, Cutibacterium acnes", "settings": "6·10^−6 M, 72 h of incubation", "protocol": "The impact of G2 dendrimer on the membrane fluidity of three bacterial strains of Cutibacterium acnes was tested. Two of the tested strains of C. acnes are “acneic” strains belonging to phylotype IA1 (RT4 and RT5) while the last one is a non-acneic strain (RT6) belonging to phylotype II. Several colonies of RT4, RT5 and RT6 (C. acnes strains) were scrapped and put in reinforced clostridial medium (RMC medium). The tubes were vortexed few seconds and homogenized before to be completely filled out with RMC in order to create anaerobic state. The tubes were then incubated at 37° C. for at least 48 h.\nBacterial cultures were collected and the OD was taken at 580 nm. After inoculation, the bacteria were sending in microplate and treated or not with G2 dendrimer. After 2 hours in anaerobic chamber, the plate was transferred in microplate reader for 72 h (OD 580 nm with measurement every 30 min). Then, the generation time of the bacteria was analyzed for each C. acnes strains. The G2 Dendrimer was tested at the following concentrations: 6·10^−6M, and 6·10^−7M."}, "[11]": {"system": "Cutibacterium acnes acneic strain ribotype 5 (RT5) HL043PA2/HM-514", "assay": "Biofilm formation on glass slide, strain RT5", "assay_type": "cell-based", "settings": "72 h biofilm", "protocol": "(§3) The Cutibacterium acnes acneic strain ribotype 5 (RT5) HL043PA2/HM-514 and the Cutibacterium acnes non-acneic strain ribotype 6 (RT6) HL110PA3/HM-554 were obtained from BEI Resources American Type Culture Collection (Virginia, United States). These two strains belong to the phylotypes IA1 and II, respectively (McDowell, 2017). Bacteria, stored at −80° C., were initially plated on brain-heart infusion (BHI, BD) agar plates for RT6 strain and on reinforced clostridial medium (RCM) agar plates for RT5 strain, and were incubated under anoxic conditions at 37° C. using a BD GasPack™ System. Colonies were transferred into sterile conical 15-mL tubes (Falcon) containing 12 ml of RCM and after vortexing for homogenization, the falcon tube is completely filled with RCM medium and incubated for 72 h at 37° C. […]\n(§4) After 72 h (biofilm formation), the RCM medium was carefully removed in each well in order to remove planktonic cells. […] Syto 9 was excited at 488 nm and fluorescence emission was detected from 500 to 550 nm. […] Quantitative analyses of images stacks were performed using the COMSTAT software (see Worldwide Website: imageanalysis.dk/) (Heydorn et al., 2000). Maximal and average biofilm thickness (μm) and their biomass volume (μm^3/μm^2) were determined. […]"}, "[12]": {"system": "Cutibacterium acnes non-acneic strain ribotype 6 (RT6) HL110PA3/HM-554", "assay": "Biofilm formation on glass slide, strain RT6", "assay_type": "cell-based", "settings": "72 h biofilm", "protocol": "as §3, §4"}, "[13]": {"system": "C. acnes", "assay": "Inhibition of C. acnes proliferation, comparison with linear polylysine", "assay_type": "cell-based, Cutibacterium acnes"}, "[14]": {"assay": "Anti-inflammatory effect, comparison with linear polylysine"}}, "note": "Values joined by “and” are separate entries in the source; they are usually repeats but may differ in a detail not shown here. Identical values can stand only once.", "data": [{"compound": "C[C@]12CCC(=O)C=C1CC[C@@H]1[C@@H]2[C@@H](O)C[C@@]2(C)[C@H]1CC[C@]2(O)C(=O)CO", "note": "[hydrocortisone, reference compound]", "values": [{"measurement": "decrease of IL-8 production", "setting": "[1]; NHDF, IL1-α 0.1 ng/mL, hydrocortisone 0.05 μg/mL", "result": 83, "unit": "%"}]}, {"compound": "poly(L-lysine) G2 [G2 dendrimer]", "values": [{"measurement": "MIC (minimum inhibitory concentration)", "setting": "[2]", "result": "10-20 ppm and 20 ppm"}, {"measurement": "inhibition of adhesion of C. acnes on keratinocyte surfaces", "setting": "[3]; 2.5×10^−7 M", "result": 29, "unit": "%"}, {"measurement": "inhibition of adhesion of C. acnes on keratinocyte surfaces", "setting": "[3]; 5×10^−6 M", "result": 40, "unit": "%"}, {"measurement": "inhibition of adhesion of C. acnes on keratinocyte surfaces", "setting": "[3]; 10^−5 M", "result": 50, "unit": "%"}, {"measurement": "inhibition of adhesion of C. acnes on keratinocyte surfaces", "setting": "[4]; 2.5×10^−6 M", "result": 35, "unit": "%"}, {"measurement": "inhibition of adhesion of C. acnes on keratinocyte surfaces", "setting": "[4]; 5×10^−6 M", "result": 51, "unit": "%"}, {"measurement": "inhibition of adhesion of C. acnes on keratinocyte surfaces", "setting": "[4]; 10^−5M", "result": 50, "unit": "%"}, {"measurement": "management of IL-8 production following IL1-α stimulation, acetate vs chloride or carbonate counter-anions", "setting": "[1]; dermal fibroblasts in vitro", "result": "more effective"}, {"measurement": "keratolytic effect (morphology of stratum corneum)", "setting": "[5]; 2 ppm topical", "result": "moderate separation of the upper layers of the stratum corneum"}, {"measurement": "keratolytic effect (morphology of stratum corneum)", "setting": "[5]; 5 ppm topical", "result": "lower detachment"}, {"measurement": "TLR2 overexpression induced by C. acnes", "setting": "[6]", "result": "complete inhibition"}, {"measurement": "decrease in IL1-α production compared to treatment with C. acnes", "setting": "[7]; 2 ppm, day 1", "result": 49, "unit": "%"}, {"measurement": "decrease in IL1-α production compared to treatment with C. acnes", "setting": "[7]; 2 ppm, day 4", "result": 28, "unit": "%"}, {"measurement": "decrease in IL1-α production compared to treatment with C. acnes", "setting": "[7]; 5 ppm, day 1", "result": 42, "unit": "%"}, {"measurement": "decrease in IL1-α production compared to treatment with C. acnes", "setting": "[7]; 5 ppm, day 4", "result": 27, "unit": "%"}, {"measurement": "membrane rigidity (membrane fluidity) vs control", "setting": "[8]", "result": "significantly decreased"}, {"measurement": "membrane rigidity (membrane fluidity) vs control", "setting": "[9]", "result": "significantly decreased"}, {"measurement": "membrane rigidity (membrane fluidity) vs control", "setting": "[10]", "result": "does not exhibit any significant effect"}, {"measurement": "change in biomass density in the biofilm", "setting": "[11]", "result": "−50", "unit": "%"}, {"measurement": "change in thickness of the biofilm", "setting": "[11]", "result": "−48", "unit": "%"}, {"measurement": "biomass density in the biofilm", "setting": "[12]", "result": "no effect"}, {"measurement": "change in thickness of the biofilm", "setting": "[12]", "result": "−32", "unit": "%"}, {"measurement": "inhibition of C. acnes proliferation compared with linear polylysine", "setting": "[13]", "result": "more effective than linear polylysine"}, {"measurement": "anti-inflammatory effect compared with linear polylysine", "setting": "[14]", "result": "more effective than linear polylysine"}]}]}
